Where “and” joins values, the source holds several entries; their conditions need not be identical. Equal entries are not always repeated.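 Where inhibition never reached the appropriate level, the endpoint shown equals the highest concentration tested. Otherwise, values were interpolated linearly from a five-concentration, 48-hour dose response in 96-well plates. Here, GI50 denotes the concentration required for 50% inhibition of growth. TGI marks complete inhibition of growth.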

The test system of the test is MDA-MB-468 breast. The test can be described thus: growth of human tumour cells (NCI), 48 h.
Take `NC1=CC(=O)C(=O)c2ccccc21`: the GI50 was 13.2 µM and the TGI is 28.5 µM.
Taken in the same sequence, the figures for `CCN1Cc2c(/C=C/c3ccccc3)nc3ccc(OC)cc3c2N(c2cccc(Cl)c2)C1` were 1.9 µM and 3.67 µM.
For `CC[C@H](C)C(=O)O[C@H]1C[C@@H](C)C=C2C=C[C@H](C)[C@H](CC[C@@H]3C[C@@H](O)CC(=O)O3)[C@H]21`, the GI50 is 2.03 µM and 2.84 µM; the TGI is 14.6 µM and 14.8 µM.
For the compound `CCN(CC)CCOc1ccccc1-n1c(C)ccc1-c1ccccc1`, the GI50 was 10 µM and the TGI was 24.4 µM.
Take `COc1ccc(-n2nc(C(=O)NCC(=O)Nc3nc4cc(OC)ccc4s3)c3ccccc3c2=O)cc1`: the GI50 was 0.846 µM.
For `CC1(C)CC(C(=O)OCCCCCCCCCCC[P+](c2ccccc2)(c2ccccc2)c2ccccc2)C(C)(C)N1O` (configuration not stated), the GI50 is 0.0875 µM and the TGI turned out to be 0.637 µM.
On to `COc1cc(NC(=O)c2cc3ccccc3cc2O)c(OC)cc1Cl`, for which the GI50 was 2.51 µM and the TGI is 8.11 µM.
Taken in the same sequence, the figures for `CCC1C[N+]2=C(c3cc(OC)c(OC)cc3CC2)c2c1cc1n2CCc2cc(OC)c(OC)cc2-1` (configuration not stated) were 0.402 µM and 5.49 µM.
`COC(=O)C(Br)(C(=O)OC)C(Br)C(Br)C(Br)c1ccccc1` (configuration not stated): the GI50 was 1.65 µM and the TGI was 3.53 µM.
Taken in the same sequence, the figures for `CCc1cccc2c3c(sc12)C(c1ccc(OC)cc1)C(C#N)=C(/N=C/c1ccc(Cl)cc1)O3` (configuration not stated) were 1.93 µM and 6.68 µM.
Taken in the same sequence, the figures for `CSc1ccc(/C(=N/N=C(N)N)c2ccc(Cl)cc2)cc1` were 0.369 µM and 1.5 µM.
As for `COc1ccc(/C=C2/C(=O)N(/C=C3\C(=O)Oc4ccccc4C3=O)C(=NC(C)=O)N2C)cc1OC`, the GI50 is greater than 100 µM and the TGI was greater than 100 µM.
With `CN1CCC(n2cnc(-c3ccc(F)cc3)c2-c2ccnc(Nc3ccccc3)n2)CC1`, the GI50 is 3.03 µM and the TGI is 10.4 µM.
Taken in the same sequence, the figures for `CCCCc1n(Cc2ccc3ccccc3n2)cc[n+]1Cc1ccc2ccccc2c1` were 0.216 µM and 0.903 µM.
Taken in the same sequence, the figures for `COC(=O)C[C@@H]1CC=CC(=O)/C1=C(O)/C=C/c1ccccc1` were 0.666 µM and 2.15 µM.
Taken in the same sequence, the figures for `O=c1[nH]c(=O)n(C2CC(O)C(CO)O2)cc1F` (configuration not stated) were 0.25 µM and 20.6 µM.
On to `Nc1n[nH]c2cc(F)c([C@@H]3Nc4c(F)cc5[nH]ncc5c4[C@H]4C5CCC(C5)[C@@H]34)cc12` (some centres not stated), for which the GI50 is 0.086 µM and the TGI amounted to 0.25 µM.
`Fc1cccc(-c2nc(-c3c[nH]c4ncccc34)cs2)c1`: the GI50 was greater than 100 µM and the TGI was greater than 100 µM.
Consider `C=C(C)[C@@H]1CC[C@]2(COC(=O)c3ccccc3C(=O)O)CC[C@]3(C)[C@H](CC[C@@H]4[C@@]5(C)CC[C@H](OC(=O)c6ccccc6C(=O)O)C(C)(C)[C@@H]5CC[C@]43C)[C@@H]12`, for which the GI50 was 29.8 µM and the TGI is greater than 100 µM.
Taken in the same sequence, the figures for `NC1=C(/C(N)=N/O)C(c2ccccc2)c2ccc3ccccc3c2O1` (configuration not stated) were 2.13 µM and greater than 60 µM.
Taken in the same sequence, the figures for `COC(=O)[C@]12CC[C@@H](C)[C@H](C)[C@@H]1C1=CC[C@@H]3[C@@]4(C)C(C=O)=C[C@@](C)(COC(=O)c5ccco5)C4=CC[C@@]3(C)[C@]1(C)CC2` were 0.0542 µM and 1.94 µM.
Taken in the same sequence, the figures for `CC(=O)OCCC/C(=C/c1cc2ccccc2c2ccccc12)[N+](=O)[O-]` were 0.291 µM and 1.06 µM.
With `Cc1cc(O)cc(-c2nn(C)cc2-c2cc(N3CCOCC3)nc(-c3cccnc3)n2)c1`, the GI50 is 1.31 µM and the TGI is 5.63 µM.
Taken in the same sequence, the figures for `COc1ncc(-c2ccc3ncnc(Nc4cccc(Cl)c4)c3c2)cc1NS(C)(=O)=O` were 0.211 µM and 0.913 µM.
Taken in the same sequence, the figures for `COc1ccc2c(ccc3oc([N+](=O)[O-])cc32)c1` were 0.121 µM and 0.338 µM.
Taken in the same sequence, the figures for `COc1ccc(-c2cncn2-c2ccc(-c3nc4cc(OC)c(OC)c(OC)c4s3)cc2)cc1N` were 8.6 µM and greater than 100 µM.
For the compound `O=C(N/N=C\c1ccc([N+](=O)[O-])cc1)c1ccc2nc(-c3ccc(Br)cc3)[nH]c2c1`, the GI50 is 0.856 µM and the TGI turned out to be 2.06 µM.
Take `COc1ccc(/C=N/C2=NNC(C)(c3ccccc3O)N2C(Cc2c[nH]c3ccccc23)C(=O)O)cc1` (configuration not stated): the GI50 is 2.21 µM and the TGI is 7.34 µM.
Taken in the same sequence, the figures for `O=C1CCCc2cc3c(cc21)CC1(C3)Cc2cc3c(cc2C1)C(=O)CCC3` were 2.92 µM and 62.7 µM.
Taken in the same sequence, the figures for `O=C1Nc2cc(-c3ccc(O)cc3)ccc2/C1=C/c1ccc[nH]1` were 0.123 µM and 0.756 µM.
Taken in the same sequence, the figures for `Nc1ncc(-c2ccc3ncnc(N4CCc5cc(F)c(F)cc54)c3c2)cn1` were 1.89 µM and 7.79 µM.
Turning to `NCCNc1nc2ccc(F)cc2c2c(=O)c3cc(F)ccc3sc12`, the GI50 was 1.79 µM and the TGI came out at 3.34 µM.
For `COc1ccc(C(=O)c2cc(C)c(OC)c(C)c2)c(OC)c1OC(=O)C(Cl)Cl`, the GI50 is 0.398 µM.
`CCN(CC)CCC(CNc1c(C)cnc2cc(Cl)ccc12)c1ccc(Cl)c(Cl)c1` (configuration not stated): the GI50 was 2.06 µM and the TGI turned out to be 4.64 µM.
Taken in the same sequence, the figures for `CCCCCCNC(=O)Oc1ccc(/C(=C(/C)c2ccccc2)c2ccc(OCCN3CCCCCC3)cc2)cc1` were 4.9 µM and 19.5 µM.
Taken in the same sequence, the figures for `Cc1nc2sc(C(=O)Nc3cccc(Cl)c3C)c(N)c2cc1C(O)c1ccccc1` (configuration not stated) were 0.0388 µM and 16.9 µM.
Taken in the same sequence, the figures for `O=C(C[n+]1ccn(CC(OCc2ccc(Cl)cc2Cl)c2ccc(Cl)cc2Cl)c1)c1ccc(F)cc1` (configuration not stated) were 0.732 µM and 2.2 µM.
In the case of `Cc1ccc(Nn2c(SCC(=O)Nc3nc(-c4ccccc4)cs3)nc(C)c2C)cc1`, the GI50 was 1.7 µM and the TGI was 6.67 µM.
Taken in the same sequence, the figures for `C=CC(=O)N1CCC(CNc2ncnc(N)c2-c2ccc(Oc3ccccc3)cc2)CC1` were 7.29 µM and 55.7 µM.
Taken in the same sequence, the figures for `CCN1C(=O)N[C@H]2[C@@H]3NC(=O)c4ccc(Cl)n4[C@@H]3C[C@]21O` were 0.229 µM and 1.08 µM.
Taken in the same sequence, the figures for `CS(=O)(=O)Nc1cccc(-c2ccc3ncnc(Nc4cncc(Cl)c4)c3c2)c1` were 0.133 µM and 0.55 µM.
As for `CN1CCN(c2ccc(NC(=O)c3cncnc3Nc3ccc4c(ccn4Cc4cccc(F)c4)c3)cc2)CC1`, the GI50 was 1.91 µM and the TGI is 6.92 µM.
Taken in the same sequence, the figures for `N#CC1=C(N)Oc2c(ccc3cccnc23)C1c1ccccc1` (configuration not stated) were 0.27 µM and 0.916 µM.
Taken in the same sequence, the figures for `O=C(Cc1ccc(-c2ccc(OCCN3CCOCC3)cc2)cn1)NCc1ccccc1` were 0.0246 µM and greater than 3.57 µM.
Taken in the same sequence, the figures for `Nc1nc(N)c2cc(S(=O)(=O)c3ccccc3)ccc2n1` were 8.01 µM and greater than 100 µM.
In the case of `O=C(Oc1c(Cl)c(Cl)c(Cl)c(Cl)c1Cl)C1CCCN1C(=O)OCc1ccccc1` (configuration not stated), the GI50 is 2.9 µM and the TGI stood at 12.6 µM.
Taken in the same sequence, the figures for `COc1ccc2cn3c4ccc(O)cc4[nH]c(=O)c3c2c1` were 0.195 µM and 0.678 µM.
